Source: patent publication US20240009175A9, “TETRAZOLE DERIVATIVES” (Merck Patent GmbH, priority 2020, published 2024)

Key:
[1] = molecular target: human rec ACSS2 (Homo sapiens (Human), UniProt Q9NR19); assay: Biochemical activity ACSS2 assay (AMP-Glo); conditions: human recombinant ACSS2, AMP-Glo, 180 min at 37° C.
Source text: Biochemical Activity ACSS2 Assay (IC50 ACSS2 Biochemical)
The biochemical activity assay for ACSS2 is based on the detection of released AMP by AMP-Glo™ Assay kit (Promega, Madison). The assay is run in three steps: the enzymatic reaction in which human rec ACSS2 activates acetate with ATP and Coenzyme A as cosubstrates to acetyl-CoA thereby releasing AMP and the detection reaction of AMP by AMP Glo assay in which after the destruction of the residual ATP with AMP Glo reagent 1 produced AMP is converted to ATP that is measured in a luciferase assay system (detection reagent). The ACSS2 activity correlates with the detected luminescence signal.
The assay was performed in Perkin Elmer 384 well white Proxiplates in a total volume of 8 μl.
1 nM (fc)C-term myc tagged ACSS2 (human, recombinant, Origene, Rockville, US) and a mixture of 100 μM (fc) ATP, 100 μM (fc) Coenzyme A and 500 μM (fc) sodium acetate were incubated in a total volume of 5 μl (50 mM Hepes, 1 mM Mg-chloride, 150 mM NaCl, 1 mM DTT, 0.01% (w/v) BSA, 0.3% DMSO, pH 7.5) in the absence or presence of the test compound (10 dilution concentrations, start conc 30 μM) for 180 min at 37° C. The reaction was stopped and residual ATP destroyed by the addition of 1 μl AMP Glo reagent solution (Promega, Madison, US). After 1h incubation at room temperature 2 μl of AMP Glo detection reagent was added and the assay was incubated for 0.75 hr at room temperature. The luminescence signal was measured with an Envision multimode reader (Perkin Elmer LAS Germany GmbH) at 700 nm in luminescence mode. The full value used was the inhibitor-free reaction. The pharmacological zero value was generated by addition of ACSS2 inhibitor (Ac-CoA Synthase Inhibitor—CAS 508186-14-9-Calbiochem) in a final concentration of 5 μM. The inhibitory values (IC50) were determined using the program Assay Analyzer® from GeneData.

[2] = molecular target: T1, ACSS2 (Homo sapiens (Human), UniProt Q9NR19); assay: Cellular assay of 14C acetate incorporation into fatty acids (IC50 ACSS2 cellular lipids); format: cell-based; conditions: HCT-15 cells
T1 sequence (Q9NR19 whole entry): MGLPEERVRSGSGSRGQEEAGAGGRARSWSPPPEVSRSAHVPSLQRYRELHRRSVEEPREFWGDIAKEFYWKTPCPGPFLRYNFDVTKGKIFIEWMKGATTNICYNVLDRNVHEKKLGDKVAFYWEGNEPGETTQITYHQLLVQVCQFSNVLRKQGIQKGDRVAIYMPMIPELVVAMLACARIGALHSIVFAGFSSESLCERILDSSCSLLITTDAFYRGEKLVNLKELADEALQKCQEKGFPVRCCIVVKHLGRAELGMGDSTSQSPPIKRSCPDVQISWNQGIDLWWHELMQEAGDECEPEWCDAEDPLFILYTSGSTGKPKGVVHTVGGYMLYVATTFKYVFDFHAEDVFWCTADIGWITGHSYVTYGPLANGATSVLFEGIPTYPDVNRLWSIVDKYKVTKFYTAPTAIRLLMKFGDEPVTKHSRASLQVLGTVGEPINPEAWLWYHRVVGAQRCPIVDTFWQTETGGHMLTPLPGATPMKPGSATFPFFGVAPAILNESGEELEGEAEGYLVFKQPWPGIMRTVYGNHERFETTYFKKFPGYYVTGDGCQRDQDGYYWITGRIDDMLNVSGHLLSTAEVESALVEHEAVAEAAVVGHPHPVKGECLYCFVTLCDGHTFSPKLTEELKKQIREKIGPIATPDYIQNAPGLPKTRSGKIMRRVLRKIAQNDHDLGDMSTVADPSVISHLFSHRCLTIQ
Description: Cellular Assay of ^14C Acetate Incorporation into Fatty Acids (IC50 ACSS2 Cellular Lipids)
This protocol describes a cellular assay capable to quantify endogenous fatty acid synthesis activity in the human HCT-15 cancer cell line following the incorporation of extracellularly administered radiolabeled ^14C acetate with a scintillation proximity based read out on extracted fatty acids.
HCT-15 cells were grown in RPMI 1640 (Gibco) supplemented with 2 mM glutamine, 1 mM sodium pyruvate 10 mM HEPES and 10% FCS (heat-inactivated) passaged every 2-3 days to remain a subconfluent, vital culture. A working cell bank was prepared with each aliquot containing 1×10^7 viable cells. After thawing, these cells are dilute immediately 1:20 in pre-warmed (37° C.) culture medium. Cells are collected by centrifugation at 200×g for 5 min, and the supernatant is replaced by 30 mL of fresh culture medium per aliquot to obtain a cell suspension containing 350000 cells/ml. From this cell suspension 100 μL are dispersed into each well of a collagen coated 96 well plate, (black, clear bottom, PS, F-bottom, Greiner) and culture for 24 h (37° C., 5% CO2). After incubation the culture medium is removed and the wells are washed once with 100 μL PBS++(supplemented with Mg^2+/Ca^2+, Gibco) and 50 μL assay medium (RPMI 1640+10 mM HEPES) are added to each well. Compounds serial dilutions are prepared from 10 mM stock solutions in DMSO using a fixed dilution factor (usually 1:3). After preparation of the dilution series in DMSO, the individual dilutions are further diluted in the assay medium. This working dilution is prepared such, that the concentration is 7× of the final concentration in the assay. The maximal DMSO concentration in the final assay is 0.1%.
To each well 10 μL compound working dilution or DMSO blank are added and the cells are cultured for 2 h (37° C., 5% CO2). Then 10 μL AlamarBlue reagent (Invitrogen) containing 14 μCi/mL 14C-acetate (Perkin Elmer) are added to each well (70 μl total volume) and cells are again cultured for 2 h. Cell viability is verified by measuring the AlamarBlue fluorescence (Tecan Safire, ex: 544 nm/em: 590 nm). After incubation the culture medium is removed and the wells are carefully washed once with cold 100 μL PBS++. For cell lysis and fatty acid recovery 50 μl 0.1 M NaOH and 0.1% Triton-X100 are added per well. The plate is sealed with PlateLoc (clear peelable heat seal, Agilent) and incubate at 70° C. for 16-24 h. After cooling to room temperature, the plates are centrifuged for 1 min at 1000 rpm and the plate seals are removed. For acidification 150 μL 0.1 M HCl are added to each well, mixed and 150 μL of the mixture are transferred into a 96 well FlashPlate (Perkin Elmer). The plates are sealed with TopSeal-A (Perkin Elmer). To allow for the fatty acid binding to the well surfaces the plates are incubate for 4 h at 70° C. After cooling to room temperature, the plates are centrifuged for 1 min at 1000 rpm and stored for 0.5-2h at room temperature in the dark. Radioactivity from ^14C incorporation into fatty acids in the wells is measured as CPM count in a MicroBeta scintillation counter (Perkin Elmer).

[3] = molecular target: T1, ACSS2; assay: Cellular assay of 14C acetate incorporation into histones (IC50 ACSS2 cellular histone); format: cell-based; conditions: HCT-15 cells
Source text: Cellular Assay of ^14C Acetate Incorporation into Histones (IC50 ACSS2 Cellular Histone)
This protocol describes a cellular assay capable to quantify endogenous histone acetylation activity in the human HCT-15 cancer cell line following the incorporation of extracellularly administered radiolabeled ^14C acetate with a scintillation based read out on acid extracted histones.
HCT-15 cells are trypsinized, washed and suspended in DMEM culture medium supplemented with penicillin/streptomycin (100 U/mL), sodium pyruvate (1 mM), and 10% FBS
Compounds serial dilutions are prepared in 96-well V-bottom microplate from 10 mM stock solutions in DMSO. From these dilutions 0.5 μl are transferred to a fresh plate including pure DMSO as negative control. The dilutions are prepared such, that the final concentration in the assay is 1/400 of the concentration in the serial dilution. The final DMSO concentration in the assay is 0.25%.
The cell suspension is seeded at densities of 2×10^5 cells per 170 μl into individual wells of a 96 well plate each containing 0.5 μl aliquots of compound serial dilutions and are kept for 1 h in a cell incubator. To each well 30 μL of a mixture containing 0.5 mCi/mL of ^14C-acetate with full medium are added. Then, the wells are incubated for 3 hrs in the cell incubator.
Further steps of the procedure should be conducted on ice or instrumentations precooled to 4° C. Cells are sedimented in the 96-well V-bottom microplate by centrifugation (Eppendorf 5804 R) at 1200 rpm for 5 min. The supernatant is removed and the cells are washed twice with 200 μL of PBS-NaB (5 mM sodium butyrate) buffer by iterative resuspension and centrifugation. Finally, the cells are resuspended in 50 μL of TEB (PBS-NaB+0.5% Triton X-100) and left on ice for 10 minutes. After centrifugation at 2300 rpm for 10 minutes at 4° C. the supernatant is removed, the remaining pellet is suspended in 50 μL of 0.2M HCl and incubated over night at 4° C. After incubation the well plate is shaken for 2 minutes in a MTP plate shaker set to 1200 rpm and then centrifuged at 3700 rpm for 10 mins. The lysate is carefully aspirated (˜43 μL) and transferred into a white MTP plate (Greiner bio-one 65509). 90 μL of Ultima Gold XR scintillation cocktail are added and the plates are sealed with a transparent cover tape before mixing vigorously using plate shaker set to 1200 rpm. Radioactivity from ^14C incorporation in the wells is measured as CPM count in a MicroBeta Trilux luminescence counter.

Sequence of human rec ACSS2 (Q9NR19 whole entry): as above

## Cc1nc2nc(C(O)(c3ccccc3)c3ccccc3)n(C)c2cc1-c1nnn[nH]1 [Compound 56, [1,5-dimethyl-6-(1H-1,2,3,4-tetrazol-5-yl)-1H-imidazo[4,5-b]pyridin-2-yl]diphenylmethanol]
[1]
  IC50: 1 to 10 nM
[2]
  IC50: 10 to 100 nM
[3]
  IC50: 100 to 10000 nM

## CCn1c(C(O)(c2ccccc2)c2nccs2)nc2nc(OC)c(-c3nnn[nH]3)cc21 (racemic) [Compound 31, [1-ethyl-5-methoxy-6-(1H-1,2,3,4-tetrazol-5-yl)-1H-imidazo[4,5-b]pyridin-2-yl](phenyl)(1,3-thiazol-2-yl)methanol]
[1]
  IC50: 1 to 10 nM
[2]
  IC50: 0.01 to 1 nM
[3]
  IC50: 1 to 10 nM

## CCn1c(C(O)(c2ccccc2)c2ccccc2)nc2nc(F)c(-c3nnn[nH]3)cc21 [Compound 45, [1-ethyl-5-fluoro-6-(1H-1,2,3,4-tetrazol-5-yl)-1H-imidazo[4,5-b]pyridin-2-yl]diphenylmethanol]
[1]
  IC50: 10 to 100 nM
[2]
  IC50: 1 to 10 nM
[3]
  IC50: 100 to 10000 nM
